Measurements reported in article PMC7413516, “Antidepressant-like activity and safety profile evaluation of 1H-imidazo[2,1-f]purine-2,4(3H,8H)-dione derivatives as 5-HT1A receptor partial agonists” (PLoS ONE, 2020).
Read-outs that look alike come from different tables or passages of the source.

Test: Pharmacokinetic study in mice, plasma and brain structures, LC/MS/MS
Assay type: in vivo, Swiss albino mice
Conditions: Swiss albino, mouse, ip, 0.625 mg/kg i.p.
Experimental: Blood samples from the Swiss albino mice were collected at 0 (pre-dose), 5, 15, 30, 60, 120, 240 and 480 min after a compound administration. The blood samples and brain structures were collected under general anesthesia induced by i.p. injection of 50 mg/kg ketamine plus 8 mg/kg xylazine. The blood samples were taken into heparinized tubes, immediately centrifuged at 1000 × g for 10 min, and plasma was collected. The plasma samples and brain structures were immediately frozen at -30°C and -80°C, respectively.
The plasma and tissue sample pretreatment procedure involved acetonitrile precipitation. A 5 μL aliquot of the IS working solution (100 ng/mL) was added to 50 μL of the collected mouse plasma sample, which was then vortex-mixed for 10 seconds. Thereafter, 200 μL of acetonitrile was added, vortexed during 20 min, and then centrifuged (1000 × g, 10 min). The supernatant (100 μL) was then transferred to insert placed in an autosampler vial, and a 10 μL volume of this was injected onto the HPLC column. Tissue samples were thawed before use, and whole hippocampus, striatum and frontal cortex were weighted and placed in a glass mortar and pestle tissue grinder and homogenized with an appropriate amount of phosphate buffer (pH 7.4) in 1:5 ratio. Afterward, 50 μL of tissue homogenates were transferred to new Eppendorf tubes and spiked with 5 μL of the internal standard working solution. All samples were stored on ice during the preparation process. This was followed by procedures like those described above.
The LC/ESI-MS/MS experiments were performed on an Applied Biosystems/MDS Sciex (Concord, Ontario, Canada) API 2000 triple quadrupole mass spectrometer equipped with an electrospray (ESI) ionization interface. This instrument was coupled to an Agilent 1100 (Agilent Technologies, Waldbronn, Germany) LC system. Data acquisition and processing were accomplished using Sciex Analyst 1.4.2 data collection and integration software.
An XBridge C18 (2.1 x 30 mm, 3.5 μm) analytical column (Waters, Milford, Massachusetts, USA) was used for compound separation. The temperatures of the column thermostat and the autosampler were set at 25°C and 10°C, respectively. The mobile phase consisted of a mixture of acetonitrile with addition of 0.1% formic acid (solvent A) and water with addition of 0.1% formic acid (solvent B) and was set at a flow rate of 0.6 mL/min. Starting amount of solvent A is 10%, isocratic elution from 0 to 3 min, and then gradient up to 90% of solvent A, and maintained to 10 min, and then gradient down to 10% of solvent A, and maintained to 15 min.
The ion source parameters were as follows: ion spray voltage: 5500 V; nebulizer gas (gas 1): 20 psi; turbo gas (gas 2): 25 psi; temperature of the heated nebulizer: 400°C; curtain gas: 40 psi; collision gas: 6 psi. Mass spectra were acquired by SRM with precursor/predominant product ion transitions for each analyte. The mass spectral Q1→Q3 transitions monitored for AZ-853, AZ-861 and for IS (nebivolol), were m/z 453.9→235.1; 504.3→285.1 and 406.2→151.1, respectively. The peak widths of precursor and product ions were set to 0.7 full width half-height. Quantification was done via peak area ratio.
Pharmacokinetic parameters were calculated by a non-compartmental approach from the average concentration values, using Phoenix WinNonlin software (Certara, Princeton, NJ 08540 USA). First order elimination rate constant (λz) was calculated by linear regression of time versus log concentration. Next, the area under the mean serum and tissue concentration versus time curve (AUC0→t) was estimated using the log-linear trapezoidal rule (1), where Ci is the plasma concentration measured at t1.
AUC0→t=∑i=1n((Ci+Ci+1)/2)∙(ti+1−ti). (1)
Area under the first-moment curve (AUMC0→t) was estimated by calculation of the total area under the first-moment curve using the Eq (2), where Ci is the plasma concentration measured at t1. AUMC0→t=∑i=1n((ti∙Ci+ti+1∙Ci+1)/2)∙(ti+1−ti). […]

[1] = hippocampus, 0.625 mg/kg, read-out: Concentration, hippocampus (individual animals)
[2] = hippocampus, 0.625 mg/kg, read-out: Concentration, hippocampus (Mean)
[3] = plasma, 0.625 mg/kg, read-out: Concentration, plasma (Mean)
[4] = plasma, 0.625 mg/kg, read-out: Concentration, plasma (individual animals)
[5] = striatum, 0.625 mg/kg, read-out: Concentration, striatum (Mean)
[6] = striatum, 0.625 mg/kg, read-out: Concentration, striatum (individual animals)

Molecule `Cn1c(=O)c2c(nc3n(CCCCN4CCN(c5ccccc5F)CC4)ccn23)n(C)c1=O` [AZ-853, 8-(4-(4-(2-fluorophenyl)piperazin-1-yl)butyl)-1,3-dimethyl-1H-imidazo[2,1-f]purine-2,4(3H,8H)-dione] has a concentration at 5 min [1] of 205 ng/mL, a concentration at 15 min [2] of 271 ng/mL and a concentration at 15 min [1] of 228 ng/mL. It also gave a concentration at 30 min [2] of 125 ng/mL, a concentration at 30 min [1] of 125 ng/mL and a concentration at 60 min [2] of 44.3 ng/mL. The concentration at 60 min [1] was 38.9 ng/mL, the concentration at 120 min [2] was 12.6 ng/mL and the concentration at 120 min [1] was 14.1 ng/mL. For the same molecule, the concentration at 240 min [2] was 8.83 ng/mL, the concentration at 240 min [1] was 9.85 ng/mL and the concentration at 480 min [2] was 2.07 ng/mL. For the same molecule, the Cmax (hippocampus, 0.625 mg/kg, read-out: Cmax, hippocampus) was 272 ng/g, the Tmax (hippocampus, 0.625 mg/kg, read-out: tmax, hippocampus (converted)) was 15 min and the CL/F (plasma) was 570 mL/min/kg. The AUC(0-t) (plasma, read-out: AUC0→t, plasma (converted)) was 17.7 ng·h/mL, the MRT (plasma, read-out: MRT, plasma (converted)) was 85.8 min and the concentration at 5 min [3] was 23.1 ng/mL. The concentration at 5 min [4] was 25.4 ng/mL, the concentration at 15 min [3] was 13.4 ng/mL and the concentration at 15 min [4] was 12.2 ng/mL. It also gave a concentration at 30 min [3] of 7.76 ng/mL, a concentration at 30 min [4] of 9.11 ng/mL and a concentration at 60 min [3] of 1.78 ng/mL. The concentration at 120 min [3] was 4.08 ng/mL, the concentration at 120 min [4] was 3.22 ng/mL and the concentration at 240 min [3] was 0.38 ng/mL. For the same molecule, the concentration at 480 min [3] was 0.29 ng/mL, the concentration at 480 min [4] was 0.25 ng/mL and the Vd/F (plasma, 0.625 mg/kg, plasma, read-out: Vd/F) was greater than 67 L/kg. The Cmax (plasma, 0.625 mg/kg, read-out: Cmax, plasma) was 23.1 ± 16 ng/mL, the Tmax (plasma, 0.625 mg/kg, read-out: tmax, plasma) was no more than 5 min and the Kp (striatum, ratio of AUC values, read-out: Brain structure-to-plasma concentration ratio, striatum (S/P)) was 19.9. It also gave an AUC(0-t) (striatum, read-out: AUC0→t, striatum (converted)) of 352 ng·h/mL, an MRT (striatum, read-out: MRT, striatum (converted)) of 56.3 min and a concentration at 5 min [5] of 337 ng/mL. It also gave a concentration at 5 min [6] of 290 ng/mL, a concentration at 15 min [5] of 404 ng/mL and a concentration at 15 min [6] of 398 ng/mL. For the same molecule, the concentration at 30 min [5] was 262 ng/mL, the concentration at 30 min [6] was 307 ng/mL and the concentration at 60 min [5] was 65.5 ng/mL. For the same molecule, the concentration at 60 min [6] was 78.3 ng/mL, the concentration at 120 min [5] was 40.9 ng/mL and the concentration at 120 min [6] was 48.7 ng/mL. The concentration at 240 min [5] was 5.58 ng/mL, the concentration at 480 min [5] was 1.4 ng/mL and the Cmax (striatum, 0.625 mg/kg, read-out: Cmax, striatum) was 404 ng/g. It also gave a Tmax (striatum, 0.625 mg/kg, read-out: tmax, striatum (converted)) of 15 min.
